{"source": "patent US20120034613A1", "about": "“Apparatus and Method for Testing Relationships Between Gene Expression and Physical Appearance of Skin” (NSE Products, Inc., priority 2010, published 2012)", "test_system": "EpidermFT™ Skin Model (EFT-400) full thickness skin cultures", "experiment": "Affymetrix GeneChip HG U133 Plus 2.0 microarray global gene expression, agent-exposed vs untreated skin cultures", "type": "cell-based, human", "settings": "0.5% vs untreated, 24 hr; down"}
{"smiles": "OCc1ccccc1O[C@@H]1O[C@H](CO)[C@@H](O)[C@H](O)[C@H]1O", "note": "[Salicin, 2-(Hydroxymethyl)phenyl β-D-glucospyranoside]", "values": [{"measurement": "Fold change HAS3 (223541_at)", "value": 3.713}, {"measurement": "Fold change HIP1R (209558_s_at)", "value": 3.322}, {"measurement": "Fold change HMGCR (202539_s_at)", "value": 3.621}, {"measurement": "Fold change HMGCR (202540_s_at)", "value": 3.753}, {"measurement": "Fold change HMOX1 (203665_at)", "value": 3.193}, {"measurement": "Fold change HOMER2 (217080_s_at)", "value": 3.789}, {"measurement": "Fold change HOOK1 (219976_at)", "value": 3.54}, {"measurement": "Fold change HS3ST6 (239547_at)", "value": 3.557}, {"measurement": "Fold change HSD17B1 (205829_at)", "value": 3.15}, {"measurement": "Fold change HYAL4 (220249_at)", "value": 3.117}, {"measurement": "Fold change IL1F5 (222223_s_at)", "value": 3.177}, {"measurement": "Fold change IL28RA (244261_at)", "value": 3.252}, {"measurement": "Fold change IRX3 (229638_at)", "value": 3.118}, {"measurement": "Fold change ITGAM (205786_s_at)", "value": 3.645}, {"measurement": "Fold change JUB (225806_at)", "value": 3.698}, {"measurement": "Fold change JUB (225807_at)", "value": 3.198}, {"measurement": "Fold change JUB (1553764_a_at)", "value": 3.662}, {"measurement": "Fold change KCTD11 (235857_at)", "value": 3.157}, {"measurement": "Fold change KIAA0485 (214295_at)", "value": 3.094}, {"measurement": "Fold change KIAA0513 (204546_at)", "value": 3.413}, {"measurement": "Fold change KIAA0746 /// SERINC2 (212314_at)", "value": 3.628}, {"measurement": "Fold change KIAA1239 (230765_at)", "value": 3.239}, {"measurement": "Fold change KIAA1609 (65438_at)", "value": 3.527}, {"measurement": "Fold change KIAA1609 (221843_s_at)", "value": 3.461}, {"measurement": "Fold change KIF21A (226003_at)", "value": 3.77}, {"measurement": "Fold change KIF21A (231875_at)", "value": 3.78}, {"measurement": "Fold change KLF5 (209211_at)", "value": 3.563}, {"measurement": "Fold change KLHL18 (1557165_s_at)", "value": 3.408}, {"measurement": "Fold change KLK11 (205470_s_at)", "value": 3.318}, {"measurement": "Fold change KLK13 (205783_at)", "value": 3.619}, {"measurement": "Fold change KRT15 (204734_at)", "value": 3.6}, {"measurement": "Fold change KRT34 (206969_at)", "value": 3.171}, {"measurement": "Fold change LAD1 (203287_at)", "value": 3.072}, {"measurement": "Fold change LOC283070 (226382_at)", "value": 3.685}, {"measurement": "Fold change LOC653602 (229546_at)", "value": 3.058}, {"measurement": "Fold change LOC728377 (228596_at)", "value": 3.786}, {"measurement": "Fold change LOC100128178 (232090_at)", "value": 3.299}, {"measurement": "Fold change LOC100128443 /// MAST4 (225613_at)", "value": 3.231}, {"measurement": "Fold change LOC100128501 (229296_at)", "value": 3.452}, {"measurement": "Fold change LOC100130885 (236213_at)", "value": 3.36}, {"measurement": "Fold change LPCAT2 (227889_at)", "value": 3.256}, {"measurement": "Fold change LYPLA1 (203007_x_at)", "value": 3.221}, {"measurement": "Fold change MACC1 (232151_at)", "value": 3.738}, {"measurement": "Fold change MACC1 (1566766_a_at)", "value": 3.181}, {"measurement": "Fold change MBD1 (241813_at)", "value": 3.076}, {"measurement": "Fold change ME1 (204058_at)", "value": 3.413}, {"measurement": "Fold change ME1 (204059_s_at)", "value": 3.029}, {"measurement": "Fold change MICALCL (243611_at)", "value": 3.335}, {"measurement": "Fold change MICALL1 (221779_at)", "value": 3.602}, {"measurement": "Fold change MKNK2 (223199_at)", "value": 3.427}, {"measurement": "Fold change MLLT4 (224685_at)", "value": 3.09}, {"measurement": "Fold change MPP7 (1564308_a_at)", "value": 3.034}, {"measurement": "Fold change MPZL2 (203780_at)", "value": 3.468}, {"measurement": "Fold change MPZL2 (230518_at)", "value": 3.326}, {"measurement": "Fold change MSMB (207430 s_at)", "value": 3.689}, {"measurement": "Fold change MTUS1 (212095_s_at)", "value": 3.034}, {"measurement": "Fold change MTUS1 (212096_s_at)", "value": 3.773}, {"measurement": "Fold change MYO5B (225301_s_at)", "value": 3.815}, {"measurement": "Fold change NDRG2 (206453_s_at)", "value": 3.922}, {"measurement": "Fold change NDRG2 (214279_s_at)", "value": 3.705}, {"measurement": "Fold change NLRX1 (1553695_a_at)", "value": 3.887}, {"measurement": "Fold change NOL3 (221566_s_at)", "value": 3.704}, {"measurement": "Fold change NOL3 (221567_at)", "value": 3.416}, {"measurement": "Fold change NT5C3 (223298_s_at)", "value": 3.641}, {"measurement": "Fold change OMG (238720_at)", "value": 3.099}, {"measurement": "Fold change P2RY2 (206277_at)", "value": 3.679}, {"measurement": "Fold change P11 (206605_at)", "value": 3.785}, {"measurement": "Fold change PANK1 (226649_at)", "value": 3.261}, {"measurement": "Fold change PCDH7 (228640_at)", "value": 3.307}, {"measurement": "Fold change PCSK6 (210553_x_at)", "value": 3.573}, {"measurement": "Fold change PITX2 (207558_s_at)", "value": 3.504}, {"measurement": "Fold change PLCXD1 (218951_s_at)", "value": 3.092}, {"measurement": "Fold change PLLP (204519_s_at)", "value": 3.781}, {"measurement": "Fold change PLXDC2 (227276_at)", "value": 3.44}, {"measurement": "Fold change PLXNA2 (213030_s_at)", "value": 3.036}, {"measurement": "Fold change PNPLA1 (1553364_at)", "value": 3.553}, {"measurement": "Fold change PPID (228469_at)", "value": 3.327}, {"measurement": "Fold change PPP1R13L (218849_s_at)", "value": 3.053}, {"measurement": "Fold change PPP2R2C (223574_x_at)", "value": 3.091}, {"measurement": "Fold change PSG4 (208191_x_at)", "value": 3.458}, {"measurement": "Fold change PSPH (205048_s_at)", "value": 3.381}, {"measurement": "Fold change PTGER3 (210375_at)", "value": 3.745}, {"measurement": "Fold change PTPN3 (203997_at)", "value": 3.799}, {"measurement": "Fold change PTPN3 (227944_at)", "value": 3.077}, {"measurement": "Fold change RAB3D (225001_at)", "value": 3.306}, {"measurement": "Fold change RAB7B (230266_at)", "value": 3.207}, {"measurement": "Fold change RAET1E (1552777_a_at)", "value": 3.558}, {"measurement": "Fold change RASAL1 (219752_at)", "value": 3.507}, {"measurement": "Fold change RBM35A (219121_s_at)", "value": 3.786}, {"measurement": "Fold change RDH13 (1559190_s_at)", "value": 3.726}, {"measurement": "Fold change RHBDL2 (1554895_a_at)", "value": 3.193}, {"measurement": "Fold change RHOD (209885_at)", "value": 3.12}, {"measurement": "Fold change RHOU (223168_at)", "value": 3.283}, {"measurement": "Fold change S1PR5 (230464_at)", "value": 3.789}, {"measurement": "Fold change S100P (204351_at)", "value": 3.66}, {"measurement": "Fold change SCD (200832_s_at)", "value": 3.77}, {"measurement": "Fold change SCD /// SCDOS (223839_s_at)", "value": 3.34}, {"measurement": "Fold change SCN4B (236359_at)", "value": 3.105}, {"measurement": "Fold change SDC1 (201287_s_at)", "value": 3.32}, {"measurement": "Fold change SEPT8 (209000_s_at)", "value": 3.657}, {"measurement": "Fold change SERPINB3 (209719_x_at)", "value": 3.665}, {"measurement": "Fold change SERPINB3 (209720_s_at)", "value": 3.147}, {"measurement": "Fold change SERPINB7 (206421_s_at)", "value": 3.623}, {"measurement": "Fold change SERPINB12 (1553057_at)", "value": 3.711}, {"measurement": "Fold change SFT2D2 (214838_at)", "value": 3.904}, {"measurement": "Fold change SGPL1 (212322_at)", "value": 3.184}, {"measurement": "Fold change SLC4A11 (223748_at)", "value": 3.82}, {"measurement": "Fold change SLC5A1 (242773_at)", "value": 3.714}, {"measurement": "Fold change SLC22A3 (205421_at)", "value": 3.516}, {"measurement": "Fold change SLC38A1 (224579_at)", "value": 3.045}, {"measurement": "Fold change SLC38A4 (220786 s_at)", "value": 3.844}, {"measurement": "Fold change SMPD3 (231732_at)", "value": 3.594}, {"measurement": "Fold change SORL1 (203509_at)", "value": 3.285}, {"measurement": "Fold change SPRR3 (232082_x_at)", "value": 3.303}]}
